{"source": "paper PMC8100298", "about": "“Histone deacetylase inhibitor resminostat in combination with sorafenib counteracts platelet-mediated pro-tumoral effects in hepatocellular carcinoma” (Scientific Reports, 2021)", "key": {"[1]": {"test_system": "HCC cells", "assay": "Western blots for acetylated α-Tubulin and p21", "assay_type": "cell-based", "conditions": "1 µM or 3 µM, 24 hours (Fig. S1C)", "experimental": "C. Western blots for acetylated α-Tubulin, total α-Tubulin, p21 and GAPDH (loading control).\nCells were treated with vehicle control (0.1 % DMSO), 1 µM or 3 µM resminostat for 24 hours. Grouped blots were composed from cropped parts of individual blots for each antibody. Original blots with exposures and indicated cropped areas can be found in the supplementary information.\nD. Cell line screen determining the EC50s of resminostat in 74 cell lines representing 14 different ca ncer indications. In addition, peripheral blood mononuclear cells (PBMCs) from healthy donors were tested. Each dot represents an EC50.\n(100×, 78440; Thermo Scientific, Massachusetts, US). Following incubation for 1 h at 4°C, […]\nThe protein concentration of the\nFisher Scientific, Massachusetts, US ). Equal amounts of protein lysates and a pre-stained […]\nUS) and transferred to PVDF membranes. The membranes were probed using the relevant […]\nof the blots to X-ray films. […]\nto adjust brightness and contrast across entire images. No other image manipulations were […]\nintracellular FACS staining."}, "[2]": {"test_system": "Hep3B2.1-7 human hepatic carcinoma", "conditions": "for Survival / Tumour weight, Mean: 21 days; for Tumour weight, Mean: SCID mice", "source_text": "The orthotopic xenograft mouse model of Hep3B2.1–7 human hepatic carcinoma was previously established. Tumors were created by injection of 2.5 × 10^6 Hep3B2.1-7 cells (ATCC, RRID:CVCL_0326; Virginia, Manassas, USA) into the main lobe of the liver of anaesthetized female SCID mice (C.B-17-Igh-1bPrkdc(scid)). […] Treatments were continued for 21 days. Treatment of animals was ceased when the body weight dropped below 85% of that on entry of the study. Only mice culled at the termination date were used to determine the tumor weight. The experiment was conducted by vivoPharm pty Ltd (Bundoora, Australia) in accordance with the principles outlined in the “Australian Code of Practice for the Care and Use of Animals for Scientific Purposes”, 7th Edition, 2004 (National Health and Medical Research Council, Canberra, Australia). All procedures involving animals were reviewed and approved by the University of Adelaide Animal Ethics Committee. The study was carried out in compliance with the ARRIVE guidelines (http://www.nc3rs.org.uk/page.asp?id=1357). […]\ninvasion assay. The ODs of the invaded cells were normalized relative to ODs from tissue […]\nOrthotopic xenograft mouse model\nThe orthotopic xenograft mouse model of Hep3B2.1-7 human hepatic carcinom a was previously established. The experiment was conducted by vivoPharm pty Ltd (Australia) in accordance with the principles outlined in the Australian Code of Practice for the Care and Use of Animals for Scientific Purposes, 7th Edition, 2004 (National Health and Medical Research Council). Procedures involving the care and use of animals in thi s study were reviewed and approved by the University of Adelaide Animal Ethics Committee. The study was carried out in compliance with the ARRIVE guidelines\n(http://www.nc3rs.org.uk/page.asp?id=1357).\nThe animals were delivered to the test facility 1 1 days prior inoculation. On arrival, all animals received a detailed physical examination, including body weight measurement by the […]\ntechnical staff. […] Each a nimal was identified by a transponder (Bar Code Data Systems Pty Ltd, Botany Bay, NSW, Australia) that could be scanned with a barcode reader (DataMars LabMax I). The transponder was implanted by subcutaneous injection between the shoulder blades while the mouse was under isoflurane-induced anaesthesia. The animals were housed in groups of six in micro-isolator cages (two cages per group). Each cage was clearly labelled with a cage card indicating study number, group, gender, and prescribed dose concentration and dose volume. The animals were kept in a controlled environment (targeted ranges: temperature 21 ± 3°C, humidity 30 -70%, 15 air changes per hour), with a light/dark cycle each of 12 hours, and under barrier (quarantine) conditions. Temperature and relative humidity were monitored continuously. All animals were subjected to the same environmental conditions. A standard certified commercial rodent diet (Rat and Mouse Cubes, Specialty Feeds Pty Ltd, Glen Forrest, WA, Australia) and tap water were provided to the animals ad libitum. Food supply was sterilized by autoclaving, and water […]\nsupply was sterilized by acidification with hydrochloric acid (pH 2.4-2.7) by Laboratory Animal Services, University of Adelaide (Adelaide, SA, Australia). Additional feed (a nimal seed, Magill Grain Store, Magill, SA, Australia), as well as wet standard feed was provided to all animals from Day 7 onwards, as a measure to minimize body w eight loss. The extent of adverse reaction was assessed during the study and mice were culled if severe adverse […]\nThe age range of the mice were 12-16 weeks at\nHep3B2.1-7 human hepatic carcinoma cells were sourced from the American Type Culture […]\nCollection (ATCC; Virginia, USA)."}}, "note": "Read-outs that look alike come from different tables or passages of the source."}
{"smiles": "CN(C)Cc1ccc(S(=O)(=O)n2ccc(/C=C/C(=O)NO)c2)cc1", "note": "[resminostat, Resminostat]", "values": [{"measurement": "acetylation of α-Tubulin", "setting": "[1]", "result": "hyperacetylation"}, {"measurement": "p21 protein", "setting": "[1]", "result": "accumulation"}, {"measurement": "Survival", "setting": "[2]; 15 mg/kg oral once daily", "result": "10/12"}, {"measurement": "Tumour weight, Mean", "setting": "[2]; 15 mg/kg oral once daily", "result": 2.55, "unit": "g"}, {"measurement": "Survival", "setting": "[2]; 40 mg/kg oral once daily", "result": "10/12"}, {"measurement": "Tumour weight, Mean", "setting": "[2]; 40 mg/kg oral once daily", "result": 1.83, "unit": "g"}, {"measurement": "tumor weight compared to the vehicle control", "setting": "[2]; daily resminostat 15 and 40 mg/kg, sorafenib 40 mg/kg, or combination (Fig. 1B)", "result": "significantly reduced tumor weight"}]}
